Reference: patent US20230405063A1, “USE OF PROBIOTIC COMPONENT AND PHARMACEUTICAL COMPOSITION CONTAINING PROBIOTIC COMPONENT” (CHENGDU KUACHANGAOPU MEDICAL TECHNOLOGY CO., LTD., priority 2020, published 2023)

Legend:
Type in all cases: in vivo
[1] = tested on: human hepatoma cells (HepG2); experiment: Tumor inhibition in HepG2 tumor-bearing nude mice, probiotic component/lysine (Example 7, Table 12); details: dosed twice, interval 7 days, 7th day after final administration, probiotic component = supernatant component of disrupted Saccharomyces cerevisiae
Description: (§1) In the following examples of the present invention, the combinational pharmaceutical efficacies (drug efficacies) of drug A and drug B co-administration was determined by ratio q of actual pharmaceutical efficacy (drug efficacy)/theoretical pharmaceutical efficacy (drug efficacy) according to Zhengjun JIN method, as follows.
Nude mice were used as experimental subjects, and human hepatoma cells (HepG2) were used as modeling cells. […] The model animals were randomly divided into 13 groups, and the drugs were administered according to Table 12. […] Each group was dosed twice at an interval of 7 days with an injection volume of […]. On the 7th day after final administration, the animals were euthanized, and the tumor tissues were taken out after dissection to determine the tumor weight, and the tumor inhibition rate was calculated relative to the negative control group.

breast cancer 4T1 cells [2] = experiment: Extra-tumoral local administration in 4T1 tumor-bearing BALB/c mice, R7d/R21d (Example 11, Table 17); details: subaxillary intradermal (extra-tumoral), twice at 7-day interval, 120 μl/mouse/time; for R7 d (relative tumor proliferation rate): day 7 after last dose; for R21 d (relative tumor proliferation rate): day 21 after last dose
Description: (§2) V=0.5×a×b^2, wherein a and b represent the length and width of the local lesion, respectively; Volume of the local lesion (e.g. tumor):
(§3) Local lesion (e.g., tumor) proliferation rate (R)=TV/CV×100, wherein TV and CV are the local lesion volumes in the study group and negative control group, respectively;
as §1
BALB/c mice were used as experimental subjects, and breast cancer 4T1 cells were used as modeling cells. 0.25×10^5 cells/mouse were injected into the right axilla subcutaneously for transplantation tumor modeling. On the 5th day after modeling, the test animals with visually obvious tumors were randomly divided into 12 groups, having 10 animals in each group. […] In groups 1-11, on days 7 and 21 after the last dose the tumor volume (V7d, V21d) were measured, and the relative tumor proliferation rates (R7d, R21d) were calculated relative to the negative control group on days 7 and 21 after the dose, so that the short-term therapeutic effectiveness (100%−R7d) and the medium- and long-term therapeutic effectiveness (100%−R21d) could be calculated, respectively. Further, based on the short-term therapeutic effectiveness and the medium- and long-term therapeutic effectiveness, the actual/expected ratio for short-term pharmaceutical efficacies q7d and the actual/expected ratio for medium- and long-term pharmaceutical efficacies q21d were calculated respectively.

lung tumor cells (A549) = experiment: Tumor inhibition in A549 tumor-bearing nude mice, co-administration (Example 5, Table 7); details: dosed once, 7th day, probiotic component = heat-inactivated Saccharomyces boulardii
Text: (§4) The method for determining the effect of combined drug administration in animal experiments was Burgi method (Burgi Y. Pharmacology; Drug actions and reactions. Cancerres. 1978, 38(2), 284-285). The Burgi method was modified by Zhengjun JIN (Zhengjun JIN, Equal probability and curve and “Q50”, Journal of the Second Shanghai Medical College; 1981, 1, 75-86) with q calculated as: q=EA+B/(EA+EB−EA×EB). In the following examples of the present invention, the combinational pharmaceutical efficacies (drug efficacies) of drug A and drug B co-administration was determined by ratio q of actual pharmaceutical efficacy (drug efficacy)/theoretical pharmaceutical efficacy (drug efficacy) according to Zhengjun JIN method, as follows.
Nude mice were used as experimental subjects, and lung tumor cells (A549) were used as modeling cells, 1×10^5 cells/mouse were injected into the right axilla subcutaneously for transplantation tumor modeling, and the average tumor volume of successfully modeled nude mice was 153.7 mm^3. The model animals were randomly divided into 18 groups, and the drugs were administered according to the drug components and administration route in Table 7. Each group was dosed once with an injection volume of […]. Wherein, the probiotic component was heat-inactivated Saccharomyces boulardii, and the administration route of group 16 was intra-tumoral injection of probiotic component followed by intra-tumoral injection of 10% arginine about 2 hours later. On the 7th day after drug administration, the animals were euthanized, and after dissection, the tumor tissue was taken out to determine the tumor weight, and the tumor inhibition rate (r) was calculated relative to the negative control group. Further, the actual efficacy/expected efficacy ratio q of a drug could also be calculated according to the therapeutic effect (tumor inhibition rate).

[3] = tested on: human pancreatic cancer cells (PANC-1); experiment: Tumor inhibition in PANC-1 tumor-bearing nude mice, probiotic component/gemcitabine (Example 7, Table 13); details: dosed once, 100 μl/mouse/time, 7th day, probiotic component = supernatant component of disrupted Saccharomyces cerevisiae
Text: The method for determining the effect of combined drug administration in animal experiments was Burgi method (Burgi Y. Pharmacology; Drug actions and reactions. […] The Burgi method was modified by Zhengjun JIN (Zhengjun JIN, Equal probability and curve and “Q50”, Journal of the Second Shanghai Medical College; 1981, 1, 75-86) with q calculated as: q=EA+B/(EA+EB-EA×EB). In the following examples of the present invention, the combinational pharmaceutical efficacies (drug efficacies) of drug A and drug B co-administration was determined by ratio q of actual pharmaceutical efficacy (drug efficacy)/theoretical pharmaceutical efficacy (drug efficacy) according to Zhengjun JIN method, as follows. […] The model animals were randomly divided into 13 groups, and the drugs were administered according to Table 13.

breast cancer 4T1 cells [4] = experiment: Short- and medium/long-term relative tumor proliferation rate in 4T1 tumor-bearing BALB/c mice (Example 10, Table 16); details: intratumoral injection, dosed twice at interval of 7 days, 100 μl/mouse/time
Text: as §2, §3, §4
BALB/c mice were used as experimental subjects, and breast cancer 4T1 cells were used as modeling cells. 0.5×10^6 cells/mouse were injected into the right axilla subcutaneously for transplantation tumor modeling, and the average tumor volume of successfully modeled nude mice was 107.4 mm^3. The model animals were randomly divided into 17 groups.
The drugs, formulated according to the method of Example 1, were administered according to Table 16. Each group was dosed twice with an interval of 7 days, and the injection volumes were 300 μl/mouse/time for groups 13 and 14, 100 μl/mouse/time for other groups. The drugs were administered by subaxillary administration of the right forelimb for group 15, and by intratumoral injection for other groups. Group 16 was administered sequentially (the first dose was aprobiotic semi-fluid-like component/cytotoxic drug/weak local acting compound, and the last dose was inactivated probiotics), while the other groups were administered with the same drug twice. On days 7 and 21 after the last dose, the tumor volumes of each group were measured (V7d, V21d), and the relative tumor proliferation rates (R7d, R21d) were calculated relative to the negative control group, respectively, so that the short-term therapeutic effectiveness (100%−R7d) and the medium- and long-term therapeutic effectiveness (100%−R21d) could be calculated, respectively.

breast cancer 4T1 cells [5] = experiment: Short-term tumor inhibition in 4T1 tumor-bearing BALB/c mice (Example 9, Table 14); details: dosed twice, 7th day after final administration
Text: as §4
BALB/c mice were used as experimental subjects, and breast cancer 4T1 cells were used as modeling cells. 0.5×10^6 cells/mouse were injected into the right axilla subcutaneously for transplantation tumor modeling, and the average tumor volume of successfully modeled nude mice was 160.1 mm^3. The model animals were randomly divided into 21 groups, and the drugs were administered by intravenous injection (series A) and intratumoral injection (series B) according to the drugs and doses in Table 14, respectively. All the drugs administered were aqueous liquids, which were formulated according to the method of Example 1. Each group was dosed twice. On the 7th day after final administration, the animals were euthanized, and the tumor tissues were taken out after dissection to determine the tumor weight, and the tumor inhibition rates rA and rB were calculated relative to the corresponding negative control groups in series A and series B.

[6] = tested on: human liver cancer HepG2 cells; experiment: Tumor inhibition in HepG2 tumor-bearing nude mice (Example 2, Table 4); details: dosed once, 150 μl/mouse; for Tumor weight (x ± s): 7th day after administration; for Tumor inhibition rate r: 7th day, relative to negative control
Description: The tumor-bearing nude mice were widely used for drug studies on chemotherapy rather than immunotherapy in patients with solid tumors. Taking nude mice as experimental subjects, human liver cancer HepG2 cells were used as modeling cells, and 1×10^5 cells/mouse were injected into the right axilla subcutaneously for transplantation tumor modeling, and the average tumor volume of successfully modeled nude mice was 161.3 mm^3. The model animals were randomly divided into 17 groups. The drugs were administered according to the drug and dosing method in Table 4. Each group was dosed once with an injection volume of 150 μl/mouse. On the 7th day after drug administration, the animals were euthanized, and after dissection, the tumor tissue was taken out to determine the tumor weight, and the tumor inhibition rate (r) was calculated relative to the negative control group.

[7] = listed as 20% lysine, 20% lysine
[8] = intratumoral injection, '+' = arginine injected about 2 hours later

## NCCCC[C@H](N)C(=O)O [25% lysine, lysine]
[1]
  Tumor inhibition rate: 54.1%
  Tumor weight (x ± s): 0.109 ± 0.074 g
[1]; 5% lysine
  Tumor inhibition rate: 11.3%
  Tumor weight (x ± s): 0.211 ± 0.091 g
[1]; listed as 1% lysine, 1% lysine
  Tumor inhibition rate: 5.2%
  Tumor weight (x ± s): 0.226 ± 0.112 g
[1]; [7]
  Tumor inhibition rate: 43.6%
  Tumor weight (x ± s): 0.134 ± 0.073 g
Breast cancer 4T1 cells [2]
  R7 d (relative tumor proliferation rate): 96%
  R21 d (relative tumor proliferation rate): 102%

## N=C(N)NCCC[C@H](N)C(=O)O [10% arginine, arginine]
Lung tumor cells (A549); [8]
  Tumor inhibition rate r: 24.7%
  Tumor weight (x ± s): 0.164 ± 0.061 g
Lung tumor cells (A549); intravenous injection
  Tumor inhibition rate r: 6.4%
  Tumor weight (x ± s): 0.196 ± 0.077 g

## Nc1ccn([C@@H]2O[C@H](CO)[C@@H](O)C2(F)F)c(=O)n1 [5% gemcitabine, gemcitabine]
[3]
  Tumor inhibition rate: 35.1%
  Tumor weight (x ± s): 0.191 ± 0.077 g
[3]; listed as 0.05% gemcitabine
  Tumor inhibition rate: 5.6%
[3]; listed as 0.1% gemcitabine
  Tumor inhibition rate: 7.8%
[3]; listed as […] gemcitabine
  Tumor inhibition rate: 30.4%
  Tumor weight (x ± s): 0.204 ± 0.103 g

B1: interleukin-12 (protein, UniProt P29459 23-219; P29460 23-328, looked up)
Interleukin-12 subunit alpha: RNLPVATPDPGMFPCLHHSQNLLRAVSNMLQKARQTLEFYPCTSEEIDHEDITKDKTSTVEACLPLELTKNESCLNSRETSFITNGSCLASRKTSFMMALCLSSIYEDLKMYQVEFKTMNAKLLMDPKRQIFLDQNMLAVIDELMQALNFNSETVPQKSSLEEPDFYKTKIKLCILLHAFRIRAVTIDRVMSYLNAS
Interleukin-12 subunit beta: IWELKKDVYVVELDWYPDAPGEMVVLTCDTPEEDGITWTLDQSSEVLGSGKTLTIQVKEFGDAGQYTCHKGGEVLSHSLLLLHKKEDGIWSTDILKDQKEPKNKTFLRCEAKNYSGRFTCWWLTTISTDLTFSVKSSRGSSDPQGVTCGAATLSAERVRGDNKEYEYSVECQEDSACPAAEESLPIEVMVDAVHKLKYENYTSSFFIRDIIKPDPPKNLQLKPLKNSRQVEVSWEYPDTWSTPHSYFSLTFCVQVQGKSKREKKDRVFTDKTSATVICRKNASISVRAQDRYYSSSWSEWASVPCS
notes: immunoenhancement control
Breast cancer 4T1 cells [2]
  R7 d (relative tumor proliferation rate): 99%
  R21 d (relative tumor proliferation rate): 97%
Breast cancer 4T1 cells [4]; day 7 after last dose
  relative tumor proliferation rate R7 d: 95%
Breast cancer 4T1 cells [4]; day 21 after last dose
  relative tumor proliferation rate R21 d: 96%
Breast cancer 4T1 cells [5]; series A: intravenous injection
  tumor inhibition rate rA: 5.3%
Breast cancer 4T1 cells [5]; series B: intratumoral injection
  tumor inhibition rate rB: 4.6%
[6]; intratumoral injection
  Tumor weight (x ± s): 0.241 ± 0.111 g
  Tumor inhibition rate r: 8.1%
[6]; intravenous injection
  Tumor weight (x ± s): 0.230 ± 0.102 g
  Tumor inhibition rate r: 4.7%
